Test results from US20240139162A1, “Benzophenanthridine Alkaloids and Their Methods of Use” (Chengdu Anticancer Bioscience, LTD., priority 2019, published 2024).
Where two headings read alike, the source gives them in different places.

Legend:
[1] = tested on: Rat1A cell lines (Rat1A C, Rat1A MYC, Rat1A E2F1, Rat1A E2F3); test: MTT assay, Rat1A cell lines expressing oncogenes; format: cell-based; conditions: Rat1A cell lines compared to Rat1A C (FIG. 12)
Experimental: (§1) Cells were split, plated in appropriate culture media and allowed to adhere. After 18 hours, corynoline and acetylcorynoline were added to a cell line selected from below. At 72 h or 96 h, MTT was added and at 75 h or 99 h, the A570 nm was recorded. The concentration ranged from 0.02 μM to 40 μM.
The following Rat1A cell lines were used in these studies: Rat1 A C, Rat1A MYC, Rat1A E2F1, and Rat1A E2F3. The cell line was then engineered as control (C), to overexpress the MYC oncogene (Rat1A-MYC), to overexpress the E2F1 oncogene (Rat1A-E2F1), or to overexpress the E2F3 oncogene (Rat1A-E2F3).

RPE-A19 cells = test: IC50 in RPE-A19 cells (Table 2); format: cell-based, human; conditions: Homo sapiens, 72 h, RPE-A19, treatment 72 h; read-out: IC50
Experimental: as §1
(§2) The effect of the compounds chelidonine and protopine on cell division was assessed similarly to corynoline and acetylcorynoline above. As described in Example 6 above, as cells enter and become arrested in mitosis, they detach from the plate surface and appear as rounded cells with a smooth surface membrane. RPE-MBC cells (ectopically expressing oncogenes MYC and Bcl2) were treated with DMSO, chelidonine and protopine, and compared against controls Michael's ketone (MK) and taxol.

[2] = tested on: all tested cell lines (RPE, Rat1A and human cancer cell lines); test: MTT assay, IC50 across all of the cell lines tested; format: cell-based
[3] = tested on: RPE cell lines (RPE NEO, RPE MBH, RPE MBC, RPE MA, RPE MP, RPE MI, RPE MYC Nick); test: MTT assay, RPE cell lines expressing oncogenes; format: cell-based, human; conditions: RPE cell lines compared with RPE NEO control (FIG. 11)
RPE-MBC cells = test: IC50 in RPE-MBC cells (Table 1); format: cell-based, human; conditions: Homo sapiens; RPE-MBC, treatment 72 h; read-out: IC50
Experimental: Retinal pigment epithelial cells transformed by ectopic MYC and Bcl-2 expression (RPE-MBC cells) have been described previously (e.g., Goga et al., 2007, Nat. Med., 13 (7):820-827) and were cultured in DMEM supplemented with 5% fetal bovine serum in a humidified incubator that was maintained at 5% CO2. For screening for bioactive fractions, cells were cultured in 96-well plates, and exposed to crude extracts, partially purified fractions or pure compounds at the concentrations indicated in the figure legends. Exposure was for 24 or 48 hours before analysis of cells for either an arrest in mitosis using an inverted microscope or for a change in DNA content after 4′,6′-diamidino-2-phenylindole (DAPI) staining by fluorescence microscopy.
The RPE series were derived from human retinal pigment epithelium and then stably transfected with a hTERT expression construct for immortalization. The resulting cell line was then engineered to overexpress the MYC and BCL2 oncogenes, generating the RPE MBC cell line. This cell line mimics cancer cells that overexpress MYC and Bcl2, and readily forms viable polyploid cells when cytokinesis is prevented.
as §1, §2

With `CC(=O)O[C@H]1Cc2cc3c(cc2[C@H]2N(C)Cc4c(ccc5c4OCO5)[C@@]12C)OCO3` [Acetylcorynoline, (5bR,6S,12bR)-5b,6,7,12b,13,14-Hexahydro-5b,13-dimethyl-[1,3]benzodioxolo[5,6-c]-1,3-dioxolo[4,5-i]phenanthridin-6-ol 6-acetate] the “change of IC50 after overexpression of oncogenes” value [1] was “all declined when compared to Rat1 A C”, the IC50 (RPE-A19 cells) was 35.2 µM and the IC50 ([2]; Homo sapiens, across all of the cell lines tested (FIG. 9), MTT at 72 h or 96 h, read-out: IC50) was 1 to 31 µM. For the same compound, the IC50 ([2]; oncogene-expressing RPE cell lines and human cell lines (FIG. 2, FIG. 3), read-out: IC50, majority of values) was 1 to 31 µM, the “change of IC50 after overexpression of oncogenic factors” value [3] was “all declined compared with the RPE NEO control, with the exception of the RPE MA cell line” and the IC50 (RPE-MBC cells) was 9.94 µM.
